Converted amounts (≈) assume the structure as drawn. Like-named read-outs stand apart in the source and are kept apart here.
Key:
Escherichia coli EC14 = assay: MIC, standard agar-dilution assay; format: cell-based; conditions: Escherichia coli, EC14
Protocol: (§1) Certain of the derivatives are active against some gram-negative bacteria, such as Pasteurella species. The MIC's in Table II were determined by standard agar-dilution assays. The MIC's in Table III were obtained using a conventional broth-dilution microtiter test.

Escherichia coli TEM = assay: MIC, standard agar-dilution assay; format: cell-based; conditions: Escherichia coli
Outline: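 Minimum inhibitory concentrations against Escherichia coli were measured with a standard agar-dilution method. The result for each derivative is the lowest concentration that inhibits bacterial growth, given in ug/mL.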

[1] = test system: Klebsiella pneumoniae KAE; assay: MIC, standard agar-dilution assay; format: cell-based; conditions: agar-dilution; Klebsiella pneumoniae KAE; read-out: MIC
Outline: (§2)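 Agar plates containing graded compound levels gave the Klebsiella value. Graded broth dilutions in microtiter plates gave the Pasteurella and Mycoplasma values.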

[2] = test system: Klebsiella pneumoniae X26; assay: MIC, standard agar-dilution assay; format: cell-based; conditions: agar-dilution; Klebsiella pneumoniae X26; read-out: MIC
Outline: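 Broth microdilution MICs cover P. hemolytica, P. multocida and M. gallisepticum. The agar-dilution MIC covers K. pneumoniae only.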

[3] = test system: Staphylococcus aureus V41; assay: MIC, standard agar-dilution assay; format: cell-based; conditions: Staphylococcus aureus, V41
Protocol: as §1

[4] = test system: Staphylococcus aureus X1.1; assay: MIC, standard agar-dilution assay; format: cell-based; conditions: Staphylococcus aureus, X1.1
Outline: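 Minimum inhibitory concentration against Staphylococcus aureus strain X1.1 was measured with a standard agar-dilution method. The result is reported as the MIC in ug/mL, i.e. the lowest compound concentration in agar that prevents visible growth of this organism.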

[5] = test system: Streptococcus Group D X66; assay: MIC, standard agar-dilution assay; format: cell-based
Protocol: as §1

[6] = test system: Streptococcus pneumoniae Park I; assay: MIC, standard agar-dilution assay; format: cell-based; conditions: agar-dilution; Streptococcus pneumoniae Park I; read-out: MIC
Protocol: as §1

[7] = test system: Streptococcus pyogenes 9960; assay: MIC, standard agar-dilution assay; format: cell-based; conditions: agar-dilution, Streptococcus 9960, read-out: MIC
Protocol: as §1

[8] = test system: Streptococcus pyogenes C203; assay: MIC, standard agar-dilution assay; format: cell-based; conditions: Streptococcus pyogenes, C203
Protocol: as §1

[9] = test system: Haemophilus influenzae 76; assay: MIC, standard agar-dilution assay; format: cell-based; conditions: Haemophilus influenzae, 76
Protocol: (§3) The MIC's in Table II were determined by standard agar-dilution assays. The MIC's in Table III were obtained using a conventional broth-dilution microtiter test.

[10] = test system: Haemophilus influenzae C.L.; assay: MIC, standard agar-dilution assay; format: cell-based; conditions: Haemophilus influenzae
Protocol: as §3

[11] = test system: Staphylococcus aureus X400; assay: MIC, standard agar-dilution assay; format: cell-based; conditions: Staphylococcus aureus, X400
Protocol: as §3

[12] = test system: Staphylococcus epidermidis EPI2; assay: MIC, standard agar-dilution assay; format: cell-based; conditions: agar-dilution; Staphylococcus epidermidis EPI2; read-out: MIC
Protocol: as §3

[13] = test system: Staphylococcus aureus S13E; assay: microbe, parasite or virus in culture; format: cell-based
Protocol: as §3

[14] = test system: Staphylococcus epidermidis EPI1; assay: microbe, parasite or virus in culture; format: cell-based; conditions: Staphylococcus epidermidis, EPI1
Protocol: as §3

[15] = test system: Mycoplasma gallisepticum 34159; assay: MIC, conventional broth-dilution microtiter test; format: cell-based; conditions: Mycoplasmoides gallisepticum, 34159
Outline: as §2

[16] = test system: Mycoplasma gallisepticum 41313; assay: MIC, conventional broth-dilution microtiter test; format: cell-based; conditions: Mycoplasmoides gallisepticum, 41313
Outline: as §2

Mycoplasma gallisepticum = assay: MIC, conventional broth-dilution microtiter test; format: cell-based; conditions: Mycoplasmoides gallisepticum
Outline: as §2

Mycoplasma hyorhinis = assay: MIC, conventional broth-dilution microtiter test; format: cell-based; conditions: broth-dilution microtiter; Mycoplasma hyorhinis; read-out: MIC
Outline: (§4)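 MICs for the two Pasteurella strains and the Mycoplasma strain were read from a broth-dilution microtiter test. The Klebsiella strain was tested on agar instead.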

Mycoplasma synoviae = assay: MIC, conventional broth-dilution microtiter test; format: cell-based; conditions: Mycoplasmopsis synoviae; broth-dilution microtiter; Mycoplasma synoviae; read-out: MIC
Outline: as §4

[17] = test system: Pasteurella hemolytica 22C; assay: MIC, conventional broth-dilution microtiter test; format: cell-based; conditions: broth-dilution microtiter; Pasteurella hemolytica 22C; read-out: MIC
Outline: as §2

[18] = test system: Pasteurella hemolytica 23C; assay: MIC, conventional broth-dilution microtiter test; format: cell-based; conditions: broth-dilution microtiter; Pasteurella hemolytica 23C; read-out: MIC
Outline: as §2

[19] = test system: Pasteurella hemolytica 41D; assay: MIC, conventional broth-dilution microtiter test; format: cell-based; conditions: broth-dilution microtiter; Pasteurella hemolytica 41D; read-out: MIC
Outline: as §2

[20] = test system: Pasteurella multocida 17E; assay: MIC, conventional broth-dilution microtiter test; format: cell-based; conditions: broth-dilution microtiter; Pasteurella multocida 17E, Bovine isolate; read-out: MIC
Outline: as §2

[21] = test system: Pasteurella multocida 22A; assay: MIC, conventional broth-dilution microtiter test; format: cell-based; conditions: broth-dilution microtiter; Pasteurella multocida 22A; read-out: MIC
Outline: as §2

[22] = test system: Pasteurella multocida 40G; assay: MIC, conventional broth-dilution microtiter test; format: cell-based; conditions: broth-dilution microtiter; Pasteurella multocida 40G; read-out: MIC
Outline: as §2

[23] = test system: Pasteurella multocida 60A; assay: MIC, conventional broth-dilution microtiter test; format: cell-based; conditions: broth-dilution microtiter; Pasteurella multocida 60A, Avian isolate; read-out: MIC
Outline: as §2

[24] = test system: Pasteurella multocida 68C; assay: MIC, conventional broth-dilution microtiter test; format: cell-based; conditions: Pasteurella multocida, 68C
Outline: as §2

Staphylococcus aureus = assay: MIC, conventional broth-dilution microtiter test; format: cell-based; conditions: broth-dilution microtiter, read-out: MIC
Protocol: as §1

Streptococcus sp. 80 = assay: MIC, conventional broth-dilution microtiter test; format: cell-based; conditions: Streptococcus, SP.80
Protocol: as §1

[25] = test system: Streptococcus pyogenes C203; assay: Protection of mice experimentally infected with S. pyogenes C203; format: in vivo; conditions: mg/kg × 2, doses given 1 and 4 hours postinfection
Protocol: Some of the derivatives of this invention have shown in vivo antimicrobial activity against experimentally-induced infections in laboratory animals. When two doses of test compound were administered to mice experimentally infected with S. pyogenes C203, the activity observed was measured as an ED50 value [effective dose in mg/kg to protect 50% of the test animals: see Warren Wick, et al., J. Bacteriol. 81, 233-235 (1961)].

Pasteurella multocida = assay: Pasteurella infection in one-day old chicks; format: in vivo; conditions: subcutaneous, 30 mg/kg × 2, 1 and 4 hours post-challenge
Protocol: Certain of the formula 1 compounds of this invention have also shown in vivo activity against infections induced by gram-negative bacteria. Table V summarizes the results of tests in which illustrative compounds were evaluated against a Pasteurella infection in one-day old chicks. The compounds were administered parenterally after challenge of the chicks with Pasteurella multocida (0.1 ml of a 10^-4 dilution of a twenty-hour tryptose broth culture of an avian P. multocida given subcutaneously). In these tests, unless indicated otherwise, all non-medicated infected chicks died within 24 hours of Pasteurella challenge. In the tests summarized in Table V, the compounds were administered by subcutaneous injection at a dosage of 30 mg/kg, 1 and 4 hours post-challenge of the chicks with P. multocida.

CCC1OC(=O)CC(O)C(C)C(OC2OC(C)C(O)C(N(C)C)C2O)C(CCNCCc2ccccc2)CC(C)C(=O)C=CC(C)=CC1CO (stereo not shown) [Compound 5, 20-N-Phenethylamino-20-deoxy-20-dihydro-OMT]
MIC (Escherichia coli EC14): 64 µg/mL (≈ 91 µM) | MIC (Escherichia coli TEM): 8 µg/mL (≈ 11.4 µM) | MIC [1]: > 128 µg/mL | MIC [2]: 4 µg/mL (≈ 5.69 µM) | MIC [3]: 8 µg/mL (≈ 11.4 µM) | MIC [4]: 4 µg/mL (≈ 5.69 µM) | MIC [5]: 8 µg/mL (≈ 11.4 µM) | MIC [6]: 1 µg/mL (≈ 1.42 µM) | MIC [7]: 16 µg/mL (≈ 22.8 µM) | MIC [8]: 2 µg/mL (≈ 2.85 µM) | MIC [9]: 8 µg/mL (≈ 11.4 µM) | MIC [10]: 8 µg/mL (≈ 11.4 µM) | MIC [11]: 16 µg/mL (≈ 22.8 µM) | MIC [12]: 16 µg/mL (≈ 22.8 µM) | MIC [13]: 8 µg/mL (≈ 11.4 µM) | MIC [14]: 4 µg/mL (≈ 5.69 µM) | MIC [15]: 50 µg/mL (≈ 71.1 µM) | MIC [16]: 50 µg/mL (≈ 71.1 µM) | MIC (Mycoplasma gallisepticum): 1.56 µg/mL (≈ 2.22 µM) | MIC (Mycoplasma hyorhinis): > 50 µg/mL | MIC (Mycoplasma synoviae): 3.12 µg/mL (≈ 4.44 µM) | MIC [17]: 6.25 µg/mL (≈ 8.89 µM) | MIC [18]: 3.12 µg/mL (≈ 4.44 µM) | MIC [19]: 3.12 µg/mL (≈ 4.44 µM) | MIC [20]: 3.12 µg/mL (≈ 4.44 µM) | MIC [21]: 6.25 µg/mL (≈ 8.89 µM) | MIC [22]: 6.25 µg/mL (≈ 8.89 µM) | MIC [23]: 3.12 µg/mL (≈ 4.44 µM) | MIC [24]: 1.56 µg/mL (≈ 2.22 µM) | MIC (Staphylococcus aureus): 6.25 µg/mL (≈ 8.89 µM) | MIC (Streptococcus sp. 80): 1.56 µg/mL (≈ 2.22 µM) | ED50 ([25]; C203, mice, oral, read-out: ED50 Oral): > 100 mg/kg | ED50 ([25]; C203, sc, mice, subcutaneous, read-out: ED50 Subcutaneous): 7.2 mg/kg | Number of Deaths/Number Treated (Pasteurella multocida): 1/10

Source: patent US4468511A, “C-20- And C-23-Modified macrolide derivatives” (Eli Lilly and Company, priority 1983, dated 1984)
